Read-outs that look alike come from different tables or passages of the source.
Columns and labels:
[1] = test system: IL2 production in PHA-stimulated mouse spleen cells; assay: suppression of IL2 production in PHA-stimulated mouse spleen cells; type: cell-based; conditions: for inhibition at 0.01 µg/mL / inhibition at 0.1 µg/mL / inhibition at 1 µg/mL / inhibition at 10 µg/mL: Mus musculus, 24 h, read-out: Suppression
Experimental: Culture of PHA-stimulated mouse spleen cells was carried out as follows: PHA (1/100 dilution) was added to the BALB/c mouse spleen cells suspension prepared in the same way as in Experimental Example 4. The cell suspension (1 ml) and 1 ml of the test substance were added to 24-well multidishes, and cultured at 37° C. in an atmosphere of 5% carbon dioxide for 24 hours. After termination of the culture, the supernatant was collected and used as the supernatant of PHA-stimulated cultures.
(§1) The IL2 activity in the supernatants of mouse allogenic MLC and the supernatants of PHA-stimulated mouse spleen cells culture was assayed as follows: IL2-dependent mouse cell line CTLL-2 cells were suspended in the RPMI1640 culture medium supplemented with 30% FCS to the concentration of 10^5 cells/ml, and 100 μl of the suspension was added to each well of 96-well microculture plates in which 100 μl of the supernatant of the MLC described above had been placed. After culturing at 37° C. in an atmosphere of 5% carbon dioxide for 20 hours, 0.5 μCi/well of ^3 H-thymidine was added, and incubated for 4 hours under the same conditions. After termination of the culture, the cells were harvested by a cell harvester, and the radioactivity incorporated into the cells was measured by a liquid scintillation counter. IL2 activity was expressed in U/ml as the titer at various concentrations at which the ^3 H-thymidine incorporation was 50% of the maximum.

[2] = test system: IL3-dependent mouse cell line FDC-P2; assay: suppression of IL3-induced proliferation of FDC-P2; type: cell-based; conditions: for inhibition at 0.001 µg/mL / inhibition at 0.01 µg/mL / inhibition at 0.1 µg/mL / inhibition at 1 µg/mL / inhibition at 10 µg/mL: Mus musculus, 24 h
Experimental: IL3-dependent mouse cell line FDC-P2 cells were suspended in the RPMI1640 culture medium supplemented with 10% FCS to the concentration of 2×10^5 cells/ml. One hundred μl of the suspension and 50 μl of the supernatant of the culture of mouse luekemia cells WEHI3 containing IL3 were added to each well of 96-well microculture plates in which 100 μl of the test substance had been placed. After culturing at 37° C. in an atmosphere of 5% carbon dioxide for 20 hours, 0.5 μCi/well of ^3 H-thymidine was added, and cultured for 4 hours under the same conditions. After termination of the culture, the cells were harvested by a cell harvester, and the radioactivity incorporated into the cells was determined by a liquid scintillation counter, and was used as an index of the IL3-dependent proliferation.

[3] = test system: IL2 production in mouse allogenic MLC; assay: suppression of IL2 production in mouse allogenic MLC; type: cell-based; conditions: for inhibition at 0.01 µg/mL / inhibition at 0.1 µg/mL / inhibition at 1 µg/mL / inhibition at 10 µg/mL: Mus musculus, 48 h, read-out: Suppression
Experimental: Mouse allogenic MLC was carried out as follows:
The respondor cell suspension and the stimulator cell suspension (0.5 ml each) prepared in the same way as in Experimental Example 1 together with 1 ml of test substance were added to 24-well multidishes, and cultured at 37° C. in an atmosphere of 5% carbon dioxide for 2 days. After termination of the culture, the supernatant was collected and used as the supernatant of mouse allogenic MLC.
as §1

KATOIII = assay: in vitro; type: cell-based, human
[4] = test system: mouse spleen cells stimulated with phytohemagglutinin (PHA); assay: suppression of blastogenic response of mouse spleen cells by PHA; type: cell-based; conditions: PHA (1/100); for inhibition at 0.01 µg/mL / inhibition at 0.1 µg/mL / inhibition at 1 µg/mL: Mus musculus, 76 h
Experimental: The effect on the mouse blastogenic response of mouse spleen cells stimulated with phytohemagglutinin (PHA) or with pokeweed mitogen (PWM) was examined as follows:
The spleen was resected from 5- to 8-week-old male […] BALB/c mice, and single cell suspension of spleen cells was prepared by using the RPMI1640 culture medium supplemented with 5% FCS. After hemolytic treatment, the concentration of the suspension was adjusted to 5×10^6 cells/ml by using the RPMI1640 culture medium supplemented with 10^-4 M 2-mercaptoethanol and 20% FCS, to which PHA or PWM was added. One hundred μl of the cell suspension was added to each well of 96-well microculture plates to which 100 μl per well of the test solution had been added (5×10^5 mouse spleen cells per well). After culturing at 37° C. in an atmosphere of 5% carbon dioxide for 72 hours, 0.5 μCi/well of ^3 H-thymidine was added and cultured under the same conditions for further 4 hours. After termination of the culture, the cells were harvested by a cell harvester, and the radioactivity incorporated into the cells was measured by a liquid scintillation counter, which was used as the index of blastogenic response of mouse spleen cells.

Compound: CCCCCCC(=O)CCCCCC/C=C/CC(O)C(O)C(N)(CO)C(=O)O (stereo not shown) [Example 1]
- IL2 activity ([1]; 0.01 μg/ml): 6.5 U/ml
- IL2 activity ([1]; 0.1 μg/ml): 2.5 U/ml
- IL2 activity ([1]; 1 μg/ml): 1.1 U/ml
- IL2 activity ([1]; 10 μg/ml): < 1 U/ml
- inhibition at 0.01 µg/mL [1]: 46.3%
- inhibition at 0.1 µg/mL [1]: 79.3%
- inhibition at 1 µg/mL [1]: 90.9%
- inhibition at 10 µg/mL [1]: > 92%
- 3H-thymidine uptake ([2]; 0.001 μg/ml): 6858 cpm
- 3H-thymidine uptake ([2]; 0.01 μg/ml): 6572 cpm
- 3H-thymidine uptake ([2]; 0.1 μg/ml): 5203 cpm
- 3H-thymidine uptake ([2]; 1 μg/ml): 5029 cpm
- 3H-thymidine uptake ([2]; 10 μg/ml): 2750 cpm
- inhibition at 0.001 µg/mL ([2]; 0.001 μg/ml): 21.5%
- inhibition at 0.01 µg/mL ([2]; 0.01 μg/ml): 25.7%
- inhibition at 0.1 µg/mL ([2]; 0.1 μg/ml): 45.9%
- inhibition at 1 µg/mL ([2]; 1 μg/ml): 48.5%
- inhibition at 10 µg/mL ([2]; 10 μg/ml): 82.1%
- IL2 activity ([3]; 0.01 μg/ml): 4.0 U/ml
- IL2 activity ([3]; 0.1 μg/ml): 2.0 U/ml
- IL2 activity ([3]; 1 μg/ml): 1.1 U/ml
- IL2 activity ([3]; 10 μg/ml): < 1 U/ml
- inhibition at 0.01 µg/mL [3]: 59.2%
- inhibition at 0.1 µg/mL [3]: 79.6%
- inhibition at 1 µg/mL [3]: 88.8%
- inhibition at 10 µg/mL [3]: > 90%
- Absorbancy (KATOIII; 0.01 μg/ml): 0.990
- Absorbancy (KATOIII; 0.1 μg/ml): 0.972
- Absorbancy (KATOIII; 1.0 μg/ml): 0.961
- Absorbancy (KATOIII; 10.0 μg/ml): 0.869
- Absorbancy (KATOIII; 100.0 μg/ml): 0.041
- inhibition at 0.01 µg/mL ([4]; 0.01 μg/ml): 71.9%
- inhibition at 0.1 µg/mL ([4]; 0.1 μg/ml): 66.8%
- inhibition at 1 µg/mL ([4]; 1 μg/ml): 92.4%
- 3H-thymidine uptake ([4]; 0.01 μg/ml): 3238 cpm
- 3H-thymidine uptake ([4]; 0.1 μg/ml): 3624 cpm
- 3H-thymidine uptake ([4]; 1 μg/ml): 1686 cpm

Compound: CCCCCCC(=O)CCCCCC/C=C/CC1OC(=O)C(N)(CO)C1O (stereo not shown) [Example 4]
- IL2 activity ([1]; 0.01 μg/ml): 4.9 U/ml
- IL2 activity ([1]; 0.1 μg/ml): 2.6 U/ml
- IL2 activity ([1]; 1 μg/ml): < 1 U/ml
- IL2 activity ([1]; 10 μg/ml): < 1 U/ml
- inhibition at 0.01 µg/mL ([1]; 0.01 μg/ml): 59.5%
- inhibition at 0.1 µg/mL ([1]; 0.1 μg/ml): 78.5%
- inhibition at 1 µg/mL ([1]; 1 μg/ml): > 92%
- inhibition at 10 µg/mL ([1]; 10 μg/ml): > 92%
- 3H-thymidine uptake ([2]; 0.001 μg/ml): 7754 cpm
- 3H-thymidine uptake ([2]; 0.01 μg/ml): 6557 cpm
- 3H-thymidine uptake ([2]; 0.1 μg/ml): 5861 cpm
- 3H-thymidine uptake ([2]; 1 μg/ml): 4922 cpm
- 3H-thymidine uptake ([2]; 10 μg/ml): 2902 cpm
- inhibition at 0.001 µg/mL ([2]; 0.001 μg/ml): 8.3%
- inhibition at 0.01 µg/mL ([2]; 0.01 μg/ml): 25.9%
- inhibition at 0.1 µg/mL ([2]; 0.1 μg/ml): 36.2%
- inhibition at 1 µg/mL ([2]; 1 μg/ml): 50.1%
- inhibition at 10 µg/mL ([2]; 10 μg/ml): 79.9%
- IL2 activity ([3]; 0.01 μg/ml): 4.0 U/ml
- IL2 activity ([3]; 0.1 μg/ml): 1.7 U/ml
- IL2 activity ([3]; 1 μg/ml): < 1 U/ml
- IL2 activity ([3]; 10 μg/ml): < 1 U/ml
- inhibition at 0.01 µg/mL ([3]; 0.01 μg/ml): 59.2%
- inhibition at 0.1 µg/mL ([3]; 0.1 μg/ml): 82.7%
- inhibition at 1 µg/mL ([3]; 1 μg/ml): > 90%
- inhibition at 10 µg/mL ([3]; 10 μg/ml): > 90%
- Absorbancy (KATOIII; 0.1 μg/ml): 0.407
- Absorbancy (KATOIII; 1.0 μg/ml): 0.401
- Absorbancy (KATOIII; 10.0 μg/ml): 0.319
- Absorbancy (KATOIII; 100.0 μg/ml): 0.009
- inhibition at 0.01 µg/mL ([4]; 0.01 μg/ml): 34.5%
- inhibition at 0.1 µg/mL ([4]; 0.1 μg/ml): 57.8%
- inhibition at 1 µg/mL ([4]; 1 μg/ml): 71%
- 3H-thymidine uptake ([4]; 0.01 μg/ml): 6074 cpm
- 3H-thymidine uptake ([4]; 0.1 μg/ml): 4312 cpm
- 3H-thymidine uptake ([4]; 1 μg/ml): 3308 cpm

From patent US5219884A, “Immunosuppressant” (Taito Co., Ltd., priority 1990, dated 1993)
